Measurements published in ChEMBL document CHEMBL1909046, “DrugMatrix in vitro pharmacology data”.
pIC50, pKi: −log10 of the molar value.

Assays:
Carbonic anhydrase 2 = Carbonic anhydrase 2 (Homo sapiens, UniProt P00918); experiment: DRUGMATRIX: Carbonic Anhydrase II enzyme inhibition (substrate: 4-Nitrophenyl acetate (4-NPA)); type: tissue-based, Erythrocyte; conditions: Not Active = under 50% inhibition at 10 µM; for IC50: erythrocyte
Adenosine receptor A1 = molecular target: T1, Adenosine receptor A1 (Homo sapiens, UniProt P30542); type: cell membranes, CHO, Membrane; conditions: cho;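 note: radioligand binding assay at the adenosine A1 receptor, with DPCPX serving as the labelled ligand; in other assays of this panel Not Active means under 50% inhibition at 10 µM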
T1 sequence (P30542 whole entry): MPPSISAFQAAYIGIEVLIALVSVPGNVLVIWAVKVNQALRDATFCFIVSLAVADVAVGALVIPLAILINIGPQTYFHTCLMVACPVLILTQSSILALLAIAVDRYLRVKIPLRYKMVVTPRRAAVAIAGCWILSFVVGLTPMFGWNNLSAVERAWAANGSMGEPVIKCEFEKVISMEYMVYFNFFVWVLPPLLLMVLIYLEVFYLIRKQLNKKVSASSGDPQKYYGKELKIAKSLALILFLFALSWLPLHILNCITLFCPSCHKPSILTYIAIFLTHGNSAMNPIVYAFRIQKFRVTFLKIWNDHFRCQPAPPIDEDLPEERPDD

[1] = molecular target: 5-hydroxytryptamine receptor 6 (Homo sapiens, UniProt P50406); type: cell membranes, HeLa, Membrane; conditions: hela; note: in other assays of this panel Not Active means under 50% inhibition at 10 µM
Chain of 5-hydroxytryptamine receptor 6 (P50406 whole entry): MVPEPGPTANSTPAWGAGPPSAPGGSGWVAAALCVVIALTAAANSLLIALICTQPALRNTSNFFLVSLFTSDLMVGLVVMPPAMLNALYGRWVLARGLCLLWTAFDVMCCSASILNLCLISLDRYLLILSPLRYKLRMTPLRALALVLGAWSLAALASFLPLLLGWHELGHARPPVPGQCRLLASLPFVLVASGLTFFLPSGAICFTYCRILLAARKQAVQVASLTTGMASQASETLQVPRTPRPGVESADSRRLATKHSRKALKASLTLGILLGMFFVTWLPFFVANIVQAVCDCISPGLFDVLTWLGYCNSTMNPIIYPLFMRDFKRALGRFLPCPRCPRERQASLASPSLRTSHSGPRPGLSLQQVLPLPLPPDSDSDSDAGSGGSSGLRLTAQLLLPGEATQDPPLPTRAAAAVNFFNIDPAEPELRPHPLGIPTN

[2] = DRUGMATRIX: Calcium Channel Type L, Dihydropyridine radioligand binding (ligand: [3H] Nitrendipine); type: cell membranes, Rattus norvegicus, Wistar, Cerebral cortex, Membrane; conditions: Not Active = under 50% inhibition at 10 µM
[3] = molecular target: Beta-1 adrenergic receptor (Homo sapiens, UniProt P08588); experiment: DRUGMATRIX: Adrenergic beta1 radioligand binding (ligand: [125I] Cyanopindolol); type: cell membranes, CHO-K1, Membrane; conditions: cho-k1; Not Active = under 50% inhibition at 10 µM
Chain of Beta-1 adrenergic receptor (P08588 whole entry): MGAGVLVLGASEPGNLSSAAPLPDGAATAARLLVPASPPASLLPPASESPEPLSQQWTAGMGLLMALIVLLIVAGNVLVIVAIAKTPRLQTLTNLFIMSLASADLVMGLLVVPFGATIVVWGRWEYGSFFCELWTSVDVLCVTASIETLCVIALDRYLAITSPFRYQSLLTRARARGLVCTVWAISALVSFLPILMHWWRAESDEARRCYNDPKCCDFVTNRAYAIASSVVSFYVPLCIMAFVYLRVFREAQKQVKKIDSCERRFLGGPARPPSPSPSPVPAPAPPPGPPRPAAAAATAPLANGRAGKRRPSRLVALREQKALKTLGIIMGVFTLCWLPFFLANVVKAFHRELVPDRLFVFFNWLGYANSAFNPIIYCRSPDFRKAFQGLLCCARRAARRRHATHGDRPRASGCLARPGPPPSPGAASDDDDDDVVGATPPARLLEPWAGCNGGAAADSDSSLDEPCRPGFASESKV

Glucocorticoid receptor = molecular target: T2, Glucocorticoid receptor (Homo sapiens, UniProt P04150); conditions: hela s3; note: in other assays of this panel Not Active means under 50% inhibition at 10 µM
T2 sequence (P04150 whole entry): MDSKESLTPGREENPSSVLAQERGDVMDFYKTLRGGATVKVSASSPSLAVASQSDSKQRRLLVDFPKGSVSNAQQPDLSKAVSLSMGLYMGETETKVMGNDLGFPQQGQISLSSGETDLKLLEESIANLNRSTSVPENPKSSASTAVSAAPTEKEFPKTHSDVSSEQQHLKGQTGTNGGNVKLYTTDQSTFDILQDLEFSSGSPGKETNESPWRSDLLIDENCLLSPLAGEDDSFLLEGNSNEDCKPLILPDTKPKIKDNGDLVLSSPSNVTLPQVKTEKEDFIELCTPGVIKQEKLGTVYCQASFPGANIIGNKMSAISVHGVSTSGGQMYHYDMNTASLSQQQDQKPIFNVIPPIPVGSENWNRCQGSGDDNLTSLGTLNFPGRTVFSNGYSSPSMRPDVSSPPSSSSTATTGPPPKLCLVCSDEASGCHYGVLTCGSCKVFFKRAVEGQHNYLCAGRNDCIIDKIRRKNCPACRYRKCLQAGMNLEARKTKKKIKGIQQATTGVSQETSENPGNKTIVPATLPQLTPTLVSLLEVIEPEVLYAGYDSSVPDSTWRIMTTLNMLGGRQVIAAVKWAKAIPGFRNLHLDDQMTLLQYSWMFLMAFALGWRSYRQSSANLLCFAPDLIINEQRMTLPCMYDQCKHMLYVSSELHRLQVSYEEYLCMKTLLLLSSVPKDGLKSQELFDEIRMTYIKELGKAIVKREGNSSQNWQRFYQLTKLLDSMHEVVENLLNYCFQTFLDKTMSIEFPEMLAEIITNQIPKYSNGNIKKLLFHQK

[4] = molecular target: T3, C-C chemokine receptor type 4 (Homo sapiens, UniProt P51679); type: cell membranes, Membrane; conditions: chem-1; note: in other assays of this panel Not Active means under 50% inhibition at 10 µM
T3 sequence (P51679 whole entry): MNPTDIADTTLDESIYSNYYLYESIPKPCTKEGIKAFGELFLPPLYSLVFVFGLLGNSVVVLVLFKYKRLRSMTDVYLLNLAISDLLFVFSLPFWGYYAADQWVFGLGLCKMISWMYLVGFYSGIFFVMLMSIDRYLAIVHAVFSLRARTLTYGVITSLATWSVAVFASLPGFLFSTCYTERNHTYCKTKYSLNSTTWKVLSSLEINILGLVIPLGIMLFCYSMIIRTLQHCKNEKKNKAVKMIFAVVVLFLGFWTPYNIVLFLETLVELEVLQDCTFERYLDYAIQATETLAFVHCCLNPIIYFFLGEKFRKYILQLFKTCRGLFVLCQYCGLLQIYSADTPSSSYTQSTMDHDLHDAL

[5] = DRUGMATRIX: Imidazoline I2, Central radioligand binding (ligand: [3H] Idazoxan); type: cell membranes, Rattus norvegicus, Wistar, Cerebral cortex, Membrane; conditions: Not Active = under 50% inhibition at 10 µM
[6] = molecular target: T4, Alpha-2C adrenergic receptor (Homo sapiens, UniProt P18825); experiment: DRUGMATRIX: Adrenergic Alpha-2C radioligand binding (ligand: [3H] MK-912); type: cell membranes, Sf9, Membrane; conditions: for IC50: sf9
T4 sequence (P18825 whole entry): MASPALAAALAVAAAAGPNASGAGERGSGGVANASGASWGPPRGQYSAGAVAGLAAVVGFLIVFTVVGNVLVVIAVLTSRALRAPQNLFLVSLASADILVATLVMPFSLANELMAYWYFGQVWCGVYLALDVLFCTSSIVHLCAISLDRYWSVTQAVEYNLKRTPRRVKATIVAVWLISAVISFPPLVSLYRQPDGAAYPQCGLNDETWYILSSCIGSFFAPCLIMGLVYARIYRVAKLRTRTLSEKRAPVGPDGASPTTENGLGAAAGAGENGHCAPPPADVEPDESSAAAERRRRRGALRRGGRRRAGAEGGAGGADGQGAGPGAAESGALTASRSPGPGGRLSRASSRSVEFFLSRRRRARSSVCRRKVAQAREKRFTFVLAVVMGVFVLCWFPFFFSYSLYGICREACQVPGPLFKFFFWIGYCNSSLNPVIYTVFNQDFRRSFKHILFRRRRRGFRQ

Glycine receptor = Glycine receptor (Rattus norvegicus, UniProt P22771+P24524+P07727+P20781); type: cell membranes, Wistar, Spinal cord, Membrane; note: in other assays of this panel Not Active means under 50% inhibition at 10 µM
[7] = molecular target: Beta-3 adrenergic receptor (Homo sapiens, UniProt P13945); experiment: DRUGMATRIX: Adrenergic beta3 radioligand binding (ligand: [125I] Cyanopindolol); type: cell membranes, HEK293, Membrane; conditions: hek293; Not Active = under 50% inhibition at 10 µM
Chain of Beta-3 adrenergic receptor (P13945 whole entry): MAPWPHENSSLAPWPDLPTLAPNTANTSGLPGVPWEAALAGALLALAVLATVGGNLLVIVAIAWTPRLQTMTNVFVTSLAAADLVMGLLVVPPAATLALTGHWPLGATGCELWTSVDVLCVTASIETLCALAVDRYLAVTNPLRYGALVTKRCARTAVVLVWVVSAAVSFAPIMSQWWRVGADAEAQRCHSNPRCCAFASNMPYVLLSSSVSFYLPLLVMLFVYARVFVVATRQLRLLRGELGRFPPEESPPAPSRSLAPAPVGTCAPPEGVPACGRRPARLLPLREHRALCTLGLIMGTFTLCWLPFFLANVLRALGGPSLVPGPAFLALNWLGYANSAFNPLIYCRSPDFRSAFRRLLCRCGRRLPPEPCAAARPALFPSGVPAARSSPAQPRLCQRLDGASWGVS

[8] = molecular target: C-C chemokine receptor type 5 (Homo sapiens, UniProt P51681); type: cell membranes, Membrane; conditions: hek293; note: in other assays of this panel Not Active means under 50% inhibition at 10 µM
Chain of C-C chemokine receptor type 5 (P51681 whole entry): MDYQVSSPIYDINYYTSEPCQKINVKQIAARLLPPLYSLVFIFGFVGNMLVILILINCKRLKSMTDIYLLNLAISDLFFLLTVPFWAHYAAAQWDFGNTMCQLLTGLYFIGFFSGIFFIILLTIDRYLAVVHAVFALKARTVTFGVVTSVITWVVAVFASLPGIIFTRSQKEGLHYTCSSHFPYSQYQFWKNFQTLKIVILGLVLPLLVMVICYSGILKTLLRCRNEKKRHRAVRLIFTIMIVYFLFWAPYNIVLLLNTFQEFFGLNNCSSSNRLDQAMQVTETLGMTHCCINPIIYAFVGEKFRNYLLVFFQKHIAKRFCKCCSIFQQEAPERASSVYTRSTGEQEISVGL

Row | Compound | IC50 (Carbonic anhydrase 2) | IC50 (Adenosine receptor A1) | IC50 [1] | IC50 [2] | Ki [2] | IC50 [3] | IC50 (Glucocorticoid receptor) | IC50 [4] | IC50 [5] | Ki [5] | IC50 [6] | IC50 (Glycine receptor) | IC50 [7] | IC50 [8] | pIC50 (Carbonic anhydrase 2; read-out: IC50) | pIC50 ([6]; read-out: IC50) | pKi ([6]; read-out: Ki)
1 | CC(C)(Oc1ccc(CCNC(=O)c2ccc(Cl)cc2)cc1)C(=O)O [BEZAFIBRATE] | Not Active | Not Active | Not Active | Not Active | Not Active | Not Active | Not Active | Not Active | Not Active | Not Active | Not Active | Not Active | Not Active | Not Active | – | – | –
2 | CCCC[C@@H](CC)COC(=O)c1ccccc1C(=O)OC[C@@H](CC)CCCC [BIS(2-ETHYLHEXYL)PHTHALATE] | – | Not Active | Not Active | Not Active | Not Active | Not Active | Not Active | Not Active | Not Active | Not Active | Not Active | Not Active | Not Active | Not Active | 4.17 | – | –
3 | Oc1c(Cl)cc(Cl)cc1Sc1cc(Cl)cc(Cl)c1O [BITHIONOL] | Not Active | Not Active | Not Active | Not Active | Not Active | Not Active | Not Active | Not Active | Not Active | Not Active | – | Not Active | Not Active | Not Active | – | 5.36 | 6.20
4 | Brc1ccccc1 [BROMOBENZENE] | Not Active | Not Active | Not Active | Not Active | Not Active | Not Active | Not Active | Not Active | Not Active | Not Active | Not Active | Not Active | Not Active | Not Active | – | – | –
5 | CCCCOC(=O)c1ccc(N)cc1 [BUTAMBEN] | Not Active | Not Active | Not Active | Not Active | Not Active | Not Active | Not Active | Not Active | Not Active | Not Active | Not Active | Not Active | Not Active | Not Active | – | – | –
6 | CC[C@@]1(O)C(=O)OCc2c1cc1n(c2=O)Cc2cc3ccccc3nc2-1 [CAMPTOTHECIN] | Not Active | Not Active | Not Active | Not Active | Not Active | Not Active | Not Active | Not Active | Not Active | Not Active | Not Active | Not Active | Not Active | Not Active | – | – | –
7 | COCc1c(C(C)C)nc(C(C)C)c(/C=C/[C@@H](O)C[C@@H](O)CC(=O)O)c1-c1ccc(F)cc1 [CERIVASTATIN] | Not Active | Not Active | Not Active | Not Active | Not Active | Not Active | Not Active | Not Active | Not Active | Not Active | Not Active | Not Active | Not Active | Not Active | – | – | –
8 | O=C1CCc2cc(OCCCCc3nnnn3C3CCCCC3)ccc2N1 [CILOSTAZOL] | Not Active | Not Active | Not Active | Not Active | Not Active | Not Active | Not Active | Not Active | Not Active | Not Active | Not Active | Not Active | Not Active | Not Active | – | – | –
9 | O=C(O)c1cn(C2CC2)c2cc(N3CCNCC3)c(F)cc2c1=O [CIPROFLOXACIN] | Not Active | Not Active | Not Active | Not Active | Not Active | Not Active | Not Active | Not Active | Not Active | Not Active | Not Active | Not Active | Not Active | Not Active | – | – | –
10 | CN(C)CCCC1(c2ccc(F)cc2)OCc2cc(C#N)ccc21 (stereo not given) [CITALOPRAM] | Not Active | Not Active | Not Active | Not Active | Not Active | Not Active | Not Active | Not Active | Not Active | Not Active | Not Active | Not Active | Not Active | Not Active | – | – | –
11 | Cc1ccccc1N1CCN(CCc2nnc3n2CCCC3)CC1 [DAPIPRAZOLE] | Not Active | Not Active | Not Active | Not Active | Not Active | Not Active | Not Active | Not Active | Not Active | Not Active | Not Active | Not Active | Not Active | Not Active | – | – | –
